# Assay results taken from article PMC10518257 (Nature Cancer, 2023).
# Several values for one entry are separate records, joined by “and”; a condition that tells them apart may be missing. Equal values may be shown once. Read-outs that look alike come from different tables or passages of the source.
# Legend:
# [1] = Animal weight of tumor-bearing mice; settings: Pralsetinib 30 mg/kg BID, individual animals
# [2] = test system: ECLC5B cells; assay: Growth inhibition (alamarBlue, 96 h); format: cell-based, human; settings: for raw viability signal (Source Data Fig. 3b-c): ECLC5B, replicates
# [3] = test system: Ba/F3-RET^M918T; assay: Growth inhibition assay in Ba/F3 cells (CellTiter-Glo, 72 h); format: cell-based; settings: Mus musculus, BaF3, 72 h, read-out: GI50 value (Mean ± SD), Ba/F3-RET^M918T, CellTiter-Glo, 72 h
# [4] = test system: Ba/F3-CCDC6::RET^S904F; assay: as above; format: cell-based
# [5] = test system: Ba/F3 KIF5B–RET^WT allograft tumors; assay: Subcutaneous allograft efficacy study; format: in vivo, BALB/c nude mice; settings: Ba/F3-KIF5B::RET, Ext. Data Fig. 9b
# [6] = test system: TT cells; assay: Growth inhibition (alamarBlue, 96 h); format: cell-based, human; settings: for raw viability signal (Source Data Fig. 3b-c): replicate sets
# [7] = test system: Ba/F3 cells expressing KIF5B–RET^G810R; assay: Growth inhibition assay in Ba/F3 cells (CellTiter-Glo, 72 h); format: cell-based; settings: replicate Sets 1-3
# [8] = test system: Ba/F3-CCDC6::RET; assay: as above; format: cell-based
# [9] = Homo sapiens, 96 h, read-out: IC50 for Inhibition of Growth (95% CI)
compound,measurement,setting,value
CO[C@]1(C(=O)N[C@@H](C)c2ccc(-n3cc(F)cn3)nc2)CC[C@H](c2nc(C)cc(Nc3cc(C)[nH]n3)n2)CC1 [Pralsetinib],Animal Weight,"[1]; LUAD-0077AS1 PDX, treatment day 7",26 g (2×) and 23 g and 21 g and 22 g (2×) and 25 g (2×) and 27 g and 24 g
same,Animal Weight,"[1]; LUAD-0087AS2 PDX, treatment day 0",28 g and 27 g (2×) and 23 g and 26 g
same,Animal Weight,"[1]; LUAD-0087AS2 PDX, treatment day 3",28 g and 27 g and 26 g and 24 g (2×)
same,Animal Weight,"[1]; LUAD-0087AS2 PDX, treatment day 7",28 g and 26 g (2×) and 24 g and 25 g
same,Animal Weight,"[1]; LUAD-0087AS2 PDX, treatment day 10",28 g and 27 g and 26 g and 25 g (2×)
same,Animal Weight,"[1]; LUAD-0087AS2 PDX, treatment day 14",29 g and 27 g and 26 g and 25 g (2×)
same,Animal Weight,"[1]; LUAD-0087AS2 PDX, treatment day 17",29 g and 25 g (3×) and 26 g
same,Animal Weight,"[1]; LUAD-0087AS2 PDX, treatment day 21",28 g and 24 g and 25 g (2×) and 26 g
same,Animal Weight,"[1]; LUAD-0087AS2 PDX, treatment day 24",28 g and 25 g (3×) and 26 g
same,Animal Weight,"[1]; LUAD-0087AS2 PDX, treatment day 29",28 g and 25 g (3×) and 26 g
same,Animal Weight,"[1]; LUAD-0087AS2 PDX, treatment day 32",29 g and 25 g (2×) and 26 g (2×)
same,Animal Weight,"[1]; LUAD-0087AS2 PDX, treatment day 35",29 g and 25 g (3×) and 26 g
same,Animal Weight,"[1]; LUAD-0087AS2 PDX, treatment day 38",25 g (3×) and 24 g and 26 g
same,Animal Weight,"[1]; LUAD-0087AS2 PDX, treatment day 42",28 g and 25 g (2×) and 26 g (2×)
same,Animal Weight,"[1]; LUAD-0087AS2 PDX, treatment day 45",28 g and 25 g (2×) and 26 g (2×)
same,raw viability signal (Source Data Fig. 3b-c),[2]; 0.01 nM,11159.3 and 6334.79 and 21867.4
same,raw viability signal (Source Data Fig. 3b-c),[2]; 0.1 nM,11498.4 and 7246.25 and 22158.4
same,raw viability signal (Source Data Fig. 3b-c),[2]; 1 nM,11273.5 and 6357.98 and 19717.2
same,raw viability signal (Source Data Fig. 3b-c),[2]; 10 nM,5160.26 and 1378.73 and 8133.57
same,raw viability signal (Source Data Fig. 3b-c),[2]; 100 nM,2920.41 and 1318.47 and 4448.62
same,raw viability signal (Source Data Fig. 3b-c),[2]; 1000 nM,1849.04 and 1272.17 and 3256.96
same,raw viability signal (Source Data Fig. 3b-c),[2]; 10000 nM,1438.61 and 1223.5 and 2843.35
same,IC50,[2]; [9],0.006 µM
same,GI50,[3],0.00162 ± 0.00077 µM
same,GI50,"[4]; BaF3/CCDC6-RET, read-out: GI50 values, Ba/F3-CCDC6::RET S904F, individual sets (replicate experiments)",0.00622 µM
same,GI50,"[4]; Mus musculus, BaF3, 72 h, read-out: GI50 value (Mean ± SD), Ba/F3-CCDC6::RET^S904F, CellTiter-Glo, 72 h",0.00602 ± 0.00169 µM
same,GI50,"[4]; read-out: GI50 values, Ba/F3-CCDC6::RET S904F, individual sets (replicate experiments)",0.00761 µM and 0.00424 µM
same,Tumor Volume Mean,"[5]; 3 mg/kg BID, Day 1",221.52 mm3
same,Tumor Volume Mean,"[5]; 3 mg/kg BID, Day 4",379.17 mm3
same,Tumor Volume Mean,"[5]; 3 mg/kg BID, Day 8",482.68 mm3
same,Tumor Volume Mean,"[5]; 3 mg/kg BID, Day 11",745.24 mm3
same,Tumor Volume Mean,"[5]; 3 mg/kg BID, Day 15",1198.84 mm3
same,Tumor Volume Mean,"[5]; 10 mg/kg BID, Day 1",212.85 mm3
same,Tumor Volume Mean,"[5]; 10 mg/kg BID, Day 4",215.66 mm3
same,Tumor Volume Mean,"[5]; 10 mg/kg BID, Day 8",297.15 mm3
same,Tumor Volume Mean,"[5]; 10 mg/kg BID, Day 11",403.26 mm3
same,Tumor Volume Mean,"[5]; 10 mg/kg BID, Day 15",433.99 mm3
same,Tumor Volume Mean,"[5]; 30 mg/kg BID, Day 1",218.49 mm3
same,Tumor Volume Mean,"[5]; 30 mg/kg BID, Day 4",127.84 mm3
same,Tumor Volume Mean,"[5]; 30 mg/kg BID, Day 8",80.68 mm3
same,Tumor Volume Mean,"[5]; 30 mg/kg BID, Day 11",53.52 mm3
same,Tumor Volume Mean,"[5]; 30 mg/kg BID, Day 15",67.12 mm3
same,Tumor Volume Mean,"[5]; 60 mg/kg BID, Day 1",225.80 mm3
same,Tumor Volume Mean,"[5]; 60 mg/kg BID, Day 4",95.08 mm3
same,Tumor Volume Mean,"[5]; 60 mg/kg BID, Day 8",69.89 mm3
same,Tumor Volume Mean,"[5]; 60 mg/kg BID, Day 11",52.39 mm3
same,Tumor Volume Mean,"[5]; 60 mg/kg BID, Day 15",58.70 mm3
same,raw viability signal (Source Data Fig. 3b-c),[6]; 0.01 nM,22929.2 and 25490.7 and 28433.6 and 13300.2 and 25151.2
same,raw viability signal (Source Data Fig. 3b-c),[6]; 0.1 nM,22974.2 and 25164.4 and 33337.3 and 15066.6 and 24111.4
same,raw viability signal (Source Data Fig. 3b-c),[6]; 1 nM,21557.9 and 25049.8 and 31833.5 and 13551.8 and 21692.4
same,raw viability signal (Source Data Fig. 3b-c),[6]; 10 nM,15259.3 and 23182.3 and 22444.5 and 12016.9 and 18286.5
same,raw viability signal (Source Data Fig. 3b-c),[6]; 100 nM,9067.36 and 11673.9 and 13386.9 and 6206.3 and 13339.4
same,raw viability signal (Source Data Fig. 3b-c),[6]; 1000 nM,7976.19 and 8542.52 and 11087 and 4402.24 and 11387.8
same,raw viability signal (Source Data Fig. 3b-c),[6]; 10000 nM,7016.43 and 7739.61 and 10148.3 and 3836.13 and 9483.47
same,IC50,[6]; [9],0.03 µM
same,GI50,[7]; Ba/3-KIF5B-RET-G810R,1.42 µM and 1.2 µM
same,GI50,"[7]; Mus musculus, BaF3, Ba/3-KIF5B-RET-G810R",0.816 µM
same,GI50,"[8]; BaF3/CCDC6-RET, 72 h, read-out: GI50 value (Mean ± SD), Ba/F3-CCDC6::RET, CellTiter-Glo, 72 h",0.0199 ± 0.0106 µM
same,GI50,"[8]; read-out: GI50 values, Ba/F3-CCDC6::RET, individual sets (replicate experiments)",0.0118 µM and 0.0319 µM and 0.0159 µM
